Source: patent US10800791B2, “Triazole ACC inhibitors and uses thereof” (Gilead Apollo, LLC, priority 2015, dated 2020)
In brackets after ≈: the same amount, converted by molar mass. Read-outs that look alike come from different tables or passages of the source.

How the values were obtained:
C. krusei = assay: Antifungal Activity Assay (broth microtiter MIC), C. krusei; format: cell-based, Candida krusei; conditions: Pichia kudriavzevii, ATCC6258, 48 h
Outline: (§1)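 Susceptibility was determined by CLSI M27-A3 broth microdilution in RPMI 1640 buffered with MOPS. Growth inhibition was scored visually after 48 h.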

[1] = tested on: Collectotrichum graminicola (Cg); assay: Growth inhibition assay of fungal pathogens, Cg; format: cell-based; conditions: 48 h, growth inhibition at 48 hours vs 2% DMSO control
Outline: (§2)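 Pathogen growth in 17% V8 broth is measured by OD600 at 24 and 48 hours, after blank subtraction, in the presence of compound at 50, 10 and 2 ppm or 2, 0.4 and 0.08 ppm. Inhibition in percent comes from 48-hour readings against the DMSO control.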

human (hACC2) = human (hACC2) (Homo sapiens, UniProt O00763); assay: In vitro ACC inhibition assay (ADP-Glo), hACC2; format: biochemical; conditions: Table 2b, additional results, 5 nM ACC2, 20 μM ATP, 20 μM acetyl-CoA
Description: The detailed procedure is as follows. […] 10 μL ADP glo reagent was added. […] 20 μL kinase detection reagent was added.

fungal (fACC2) = fungal (fACC2) (UniProt Q00955); conditions: read-out: fACC2 (in vitro ACC2 Inhibition Assay, IC50); Table 2b, additional results; ADP-Glo, 5 nM ACC2, 20 μM ATP, 20 μM acetyl-CoA
Diplodia maydis (Dm) = assay: Growth inhibition assay of fungal pathogens, Dm; format: cell-based; conditions: Stenocarpella maydis, 48 h, growth inhibition at 48 hours vs 2% DMSO control
Outline: as §2

Septoria tritici (St) = assay: Growth inhibition assay of fungal pathogens, St; format: cell-based; conditions: Zymoseptoria tritici, 48 h, growth inhibition at 48 hours vs 2% DMSO control
Outline: as §2

[2] = tested on: Fusarium virguliforme (Fv); assay: Growth inhibition assay of fungal pathogens, Fv; format: cell-based; conditions: 48 h
Outline: as §2

C. albicans = assay: Antifungal Activity Assay (broth microtiter MIC), C. albicans; format: cell-based, Candida albicans; conditions: Candida albicans, ATCC90028, 48 h
Outline: as §1

Rhizoctonia solani (Rs) = assay: Growth inhibition assay of fungal pathogens, Rs; format: cell-based; conditions: 48 h
C. parapsilosis = assay: Antifungal Activity Assay (broth microtiter MIC), C. parapsilosis; format: cell-based, Candida parapsilosis; conditions: Lodderomyces parapsilosis, ATCC22019, 48 h
Outline: as §1

[3] = tested on: Phytophthora capsici (Pc); assay: Growth inhibition assay of fungal pathogens, Pc; format: cell-based; conditions: 48 h
Outline: as §2

Botrtyis cinerea (Bc) = assay: Growth inhibition assay of fungal pathogens, Bc; format: cell-based; conditions: 48 h, growth inhibition at 48 hours vs 2% DMSO control
Outline: as §2

[4] = tested on: Fusarium moniliforme (Fm); assay: Growth inhibition assay of fungal pathogens, Fm; format: cell-based; conditions: Fusarium verticillioides, 48 h, read-out: Concentration at 90% Inhibition Fm
Outline: as §2

[5] = read-out: MIC, C. krusei ATCC 6258, Table 3b (additional results), 3 replicates, MIC recorded at 48 h
[6] = read-out: Concentration at 90% Inhibition Cg, Collectotrichum graminicola
[7] = read-out: Concentration at 90% Inhibition Dm, Diplodia maydis
[8] = read-out: Concentration at 90% Inhibition St, Septoria tritici
[9] = read-out: Concentration at 90% Inhibition Fv, Fusarium virguliforme, growth inhibition at 48 hours vs 2% DMSO control
[10] = read-out: MIC, C. albicans ATCC 90028, Table 3b (additional results), 3 replicates, MIC recorded at 48 h
[11] = read-out: Concentration at 90% Inhibition Rs, Rhizoctonia solani, mycelial plugs, growth inhibition at 48 hours vs 2% DMSO control
[12] = read-out: MIC, C. parapsilosis ATCC 22019, Table 3b (additional results), 3 replicates, MIC recorded at 48 h
[13] = read-out: Concentration at 90% Inhibition Pc, Phytophthora capsici, growth inhibition at 48 hours vs 2% DMSO control
[14] = read-out: Concentration at 90% Inhibition Bc, Botrtyis cinerea
[15] = Table 3b (additional results), ATCC 6258, 3 replicates, MIC recorded at 48 h, read-out: MIC, C. krusei ATCC 6258
[16] = Collectotrichum graminicola, read-out: Concentration at 90% Inhibition Cg
[17] = Diplodia maydis, read-out: Concentration at 90% Inhibition Dm
[18] = Septoria tritici, read-out: Concentration at 90% Inhibition St
[19] = growth inhibition at 48 hours vs 2% DMSO control, read-out: Concentration at 90% Inhibition Fv
[20] = Table 3b (additional results), ATCC 90028, 3 replicates, MIC recorded at 48 h, read-out: MIC, C. albicans ATCC 90028
[21] = mycelial plugs, growth inhibition at 48 hours vs 2% DMSO control, read-out: Concentration at 90% Inhibition Rs
[22] = Table 3b (additional results), ATCC 22019, 3 replicates, MIC recorded at 48 h, read-out: MIC, C. parapsilosis ATCC 22019
[23] = growth inhibition at 48 hours vs 2% DMSO control, read-out: Concentration at 90% Inhibition Pc
[24] = Botrtyis cinerea, read-out: Concentration at 90% Inhibition Bc
[25] = Fusarium moniliforme, growth inhibition at 48 hours vs 2% DMSO control

Sequence of human (hACC2) (O00763 whole entry): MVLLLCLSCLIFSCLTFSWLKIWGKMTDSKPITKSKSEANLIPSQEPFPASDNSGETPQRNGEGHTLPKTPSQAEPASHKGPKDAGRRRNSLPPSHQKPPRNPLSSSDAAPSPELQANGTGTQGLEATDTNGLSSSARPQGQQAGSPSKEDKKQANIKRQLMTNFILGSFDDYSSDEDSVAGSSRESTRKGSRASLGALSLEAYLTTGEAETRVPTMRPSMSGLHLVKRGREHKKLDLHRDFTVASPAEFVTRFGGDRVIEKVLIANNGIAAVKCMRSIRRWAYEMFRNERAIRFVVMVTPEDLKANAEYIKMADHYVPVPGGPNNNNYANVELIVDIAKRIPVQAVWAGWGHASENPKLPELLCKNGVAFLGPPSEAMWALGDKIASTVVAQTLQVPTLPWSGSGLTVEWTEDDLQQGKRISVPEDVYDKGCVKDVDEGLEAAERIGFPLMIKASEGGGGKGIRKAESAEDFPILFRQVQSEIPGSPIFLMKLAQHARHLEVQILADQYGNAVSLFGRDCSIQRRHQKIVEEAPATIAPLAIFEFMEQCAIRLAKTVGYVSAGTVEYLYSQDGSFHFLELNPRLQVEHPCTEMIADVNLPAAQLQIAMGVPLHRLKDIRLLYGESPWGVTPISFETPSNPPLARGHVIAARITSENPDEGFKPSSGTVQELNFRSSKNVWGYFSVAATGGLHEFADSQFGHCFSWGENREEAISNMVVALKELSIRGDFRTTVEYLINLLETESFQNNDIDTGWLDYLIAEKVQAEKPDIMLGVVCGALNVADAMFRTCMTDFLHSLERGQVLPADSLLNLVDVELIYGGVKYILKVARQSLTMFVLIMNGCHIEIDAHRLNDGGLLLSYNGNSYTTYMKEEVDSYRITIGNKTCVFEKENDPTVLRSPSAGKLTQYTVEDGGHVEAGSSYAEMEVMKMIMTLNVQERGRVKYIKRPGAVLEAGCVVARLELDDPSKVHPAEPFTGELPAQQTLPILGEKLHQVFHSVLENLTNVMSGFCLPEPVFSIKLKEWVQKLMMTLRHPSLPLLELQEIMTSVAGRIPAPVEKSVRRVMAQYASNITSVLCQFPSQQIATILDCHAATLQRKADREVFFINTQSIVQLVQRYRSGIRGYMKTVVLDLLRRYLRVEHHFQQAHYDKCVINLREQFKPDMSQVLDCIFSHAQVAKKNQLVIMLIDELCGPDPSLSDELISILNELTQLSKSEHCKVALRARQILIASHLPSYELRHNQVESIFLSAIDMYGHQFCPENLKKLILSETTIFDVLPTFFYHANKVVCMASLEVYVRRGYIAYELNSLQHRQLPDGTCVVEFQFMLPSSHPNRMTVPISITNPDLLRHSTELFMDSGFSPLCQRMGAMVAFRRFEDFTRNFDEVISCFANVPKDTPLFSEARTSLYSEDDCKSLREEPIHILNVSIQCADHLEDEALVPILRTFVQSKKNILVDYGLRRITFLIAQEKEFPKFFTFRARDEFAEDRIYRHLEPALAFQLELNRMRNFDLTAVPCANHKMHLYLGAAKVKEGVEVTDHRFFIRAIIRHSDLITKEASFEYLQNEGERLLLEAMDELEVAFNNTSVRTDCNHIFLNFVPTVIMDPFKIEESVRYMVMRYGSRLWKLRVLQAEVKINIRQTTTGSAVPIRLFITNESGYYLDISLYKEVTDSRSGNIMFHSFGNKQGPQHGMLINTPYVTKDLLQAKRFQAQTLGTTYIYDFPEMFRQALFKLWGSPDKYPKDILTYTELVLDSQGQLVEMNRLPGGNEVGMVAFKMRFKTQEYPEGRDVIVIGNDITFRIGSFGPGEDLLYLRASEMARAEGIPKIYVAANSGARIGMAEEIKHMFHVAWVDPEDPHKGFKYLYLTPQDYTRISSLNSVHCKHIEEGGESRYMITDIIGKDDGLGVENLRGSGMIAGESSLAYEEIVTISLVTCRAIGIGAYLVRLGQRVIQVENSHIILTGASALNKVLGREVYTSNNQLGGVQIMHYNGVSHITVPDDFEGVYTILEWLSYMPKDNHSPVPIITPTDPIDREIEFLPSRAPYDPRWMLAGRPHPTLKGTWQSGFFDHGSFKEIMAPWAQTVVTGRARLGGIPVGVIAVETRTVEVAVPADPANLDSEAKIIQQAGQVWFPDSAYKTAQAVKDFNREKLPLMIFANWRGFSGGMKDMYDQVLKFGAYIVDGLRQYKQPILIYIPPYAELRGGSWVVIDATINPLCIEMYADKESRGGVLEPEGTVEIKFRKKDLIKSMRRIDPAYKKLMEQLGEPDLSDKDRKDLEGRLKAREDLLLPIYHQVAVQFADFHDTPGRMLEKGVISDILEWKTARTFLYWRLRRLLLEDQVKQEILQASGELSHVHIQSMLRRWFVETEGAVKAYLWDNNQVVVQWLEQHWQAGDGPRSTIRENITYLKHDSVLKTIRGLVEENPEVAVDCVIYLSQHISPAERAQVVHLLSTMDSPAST
Sequence of fungal (fACC2) (Q00955 whole entry): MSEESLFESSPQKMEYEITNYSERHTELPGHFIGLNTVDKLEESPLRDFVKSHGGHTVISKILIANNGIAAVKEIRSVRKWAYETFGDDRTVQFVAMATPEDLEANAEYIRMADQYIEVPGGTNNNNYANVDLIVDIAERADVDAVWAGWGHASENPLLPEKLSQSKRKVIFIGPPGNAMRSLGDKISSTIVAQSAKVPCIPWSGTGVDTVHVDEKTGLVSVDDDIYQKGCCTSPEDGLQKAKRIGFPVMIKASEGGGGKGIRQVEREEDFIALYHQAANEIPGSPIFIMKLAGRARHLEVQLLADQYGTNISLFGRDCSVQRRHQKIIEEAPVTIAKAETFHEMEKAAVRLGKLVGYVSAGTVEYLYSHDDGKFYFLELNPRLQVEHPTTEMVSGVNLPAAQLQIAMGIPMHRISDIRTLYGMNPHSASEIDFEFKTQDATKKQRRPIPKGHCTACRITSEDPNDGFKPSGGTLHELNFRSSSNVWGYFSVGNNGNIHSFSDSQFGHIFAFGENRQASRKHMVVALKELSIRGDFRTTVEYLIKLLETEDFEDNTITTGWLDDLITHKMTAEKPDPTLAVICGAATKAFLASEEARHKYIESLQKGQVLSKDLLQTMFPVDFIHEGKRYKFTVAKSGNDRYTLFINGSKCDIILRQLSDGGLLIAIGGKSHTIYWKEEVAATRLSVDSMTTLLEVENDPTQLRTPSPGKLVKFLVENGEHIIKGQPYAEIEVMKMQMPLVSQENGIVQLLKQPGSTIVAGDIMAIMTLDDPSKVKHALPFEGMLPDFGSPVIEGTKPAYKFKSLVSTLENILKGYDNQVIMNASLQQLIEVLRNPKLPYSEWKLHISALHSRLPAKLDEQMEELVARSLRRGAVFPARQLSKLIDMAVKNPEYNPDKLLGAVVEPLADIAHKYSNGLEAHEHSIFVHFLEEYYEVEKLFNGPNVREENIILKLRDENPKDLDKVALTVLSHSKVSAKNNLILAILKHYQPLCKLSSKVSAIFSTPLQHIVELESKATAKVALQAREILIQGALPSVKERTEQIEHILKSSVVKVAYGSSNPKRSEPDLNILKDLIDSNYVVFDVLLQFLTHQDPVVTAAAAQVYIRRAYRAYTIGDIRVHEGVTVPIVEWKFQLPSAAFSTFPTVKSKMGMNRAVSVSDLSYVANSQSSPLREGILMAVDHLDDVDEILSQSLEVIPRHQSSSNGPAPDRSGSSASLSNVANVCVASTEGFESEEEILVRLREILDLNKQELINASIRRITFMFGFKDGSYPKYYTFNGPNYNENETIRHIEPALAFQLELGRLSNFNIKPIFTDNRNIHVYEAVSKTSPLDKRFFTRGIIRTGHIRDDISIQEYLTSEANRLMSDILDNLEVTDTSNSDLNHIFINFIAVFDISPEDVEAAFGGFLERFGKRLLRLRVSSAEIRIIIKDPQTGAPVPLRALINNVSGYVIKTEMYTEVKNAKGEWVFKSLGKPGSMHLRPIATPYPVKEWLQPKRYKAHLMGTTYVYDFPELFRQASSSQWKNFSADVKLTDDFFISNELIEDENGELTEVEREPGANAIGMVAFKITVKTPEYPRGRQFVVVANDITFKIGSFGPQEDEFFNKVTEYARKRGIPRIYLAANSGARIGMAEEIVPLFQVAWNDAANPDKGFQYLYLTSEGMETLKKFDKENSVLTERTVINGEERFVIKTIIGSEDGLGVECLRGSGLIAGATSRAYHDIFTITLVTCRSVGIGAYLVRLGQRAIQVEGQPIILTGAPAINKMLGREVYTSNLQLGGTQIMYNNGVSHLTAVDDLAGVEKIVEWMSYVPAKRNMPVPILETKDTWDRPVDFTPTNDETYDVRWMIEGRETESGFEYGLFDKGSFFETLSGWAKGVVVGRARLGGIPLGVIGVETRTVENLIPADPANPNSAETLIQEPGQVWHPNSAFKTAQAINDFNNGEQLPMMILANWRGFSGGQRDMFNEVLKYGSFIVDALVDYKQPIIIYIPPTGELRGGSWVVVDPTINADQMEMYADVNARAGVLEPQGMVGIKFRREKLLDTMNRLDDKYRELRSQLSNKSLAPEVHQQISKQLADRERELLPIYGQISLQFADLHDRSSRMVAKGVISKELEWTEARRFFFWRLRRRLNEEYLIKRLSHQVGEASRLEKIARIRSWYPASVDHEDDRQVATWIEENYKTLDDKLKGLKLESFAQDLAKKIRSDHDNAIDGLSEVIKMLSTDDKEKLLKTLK

SMILES | MIC (C. krusei; [5]) | IC90 [1, 6] | IC50 (human (hACC2)) | IC50 (fungal (fACC2)) | IC90 (Diplodia maydis (Dm); [7]) | IC90 (Septoria tritici (St); [8]) | IC90 [2, 9] | MIC (C. albicans; [10]) | IC90 (Rhizoctonia solani (Rs); [11]) | MIC (C. parapsilosis; [12]) | IC90 [3, 13] | IC90 (Botrtyis cinerea (Bc); [14]) | IC90 [4] | also measured
COc1ccc(F)cc1[C@H](Cn1c(=O)n(C(C)(C)C(=O)NC(C)C)c(=O)c2c(C)c(-n3nccn3)sc21)O[C@H]1CC[C@@H](O)CC1 [Compound I-216] | 0.06 to 0.249 µg/mL (≈ 0.0933 to 0.387 µM) | 2 µg/mL (≈ 3.11 µM) | 5 to 10 nM | 0.3 to 1 nM | 2 µg/mL (≈ 3.11 µM) | > 50 µg/mL | 0.4 µg/mL (≈ 0.622 µM) | 0.25 to 1 µg/mL (≈ 0.389 to 1.56 µM) | 0.08 µg/mL (≈ 0.124 µM) | 0.25 to 1 µg/mL (≈ 0.389 to 1.56 µM) | > 50 µg/mL | 0.4 µg/mL (≈ 0.622 µM) | 0.08 µg/mL (≈ 0.124 µM) | 
COc1ccccc1[C@H](Cn1c(=O)n(C(C)(C)C(=O)NC(C)C)c(=O)c2c(C)c(-n3nccn3)sc21)O[C@H]1CC[C@@H](O)CC1 [Compound I-217] | 0.06 to 0.249 µg/mL (≈ 0.096 to 0.399 µM) | 2 µg/mL (≈ 3.2 µM) | 5 to 10 nM | 0.3 to 1 nM | 2 µg/mL (≈ 3.2 µM) | > 50 µg/mL | 0.4 µg/mL (≈ 0.64 µM) | 0.25 to 1 µg/mL (≈ 0.4 to 1.6 µM) | 0.08 µg/mL (≈ 0.128 µM) | 0.25 to 1 µg/mL (≈ 0.4 to 1.6 µM) | > 50 µg/mL | 0.4 µg/mL (≈ 0.64 µM) | 0.08 µg/mL (≈ 0.128 µM) | 
COc1ccc(F)cc1[C@H](Cn1c(=O)n(C(C)(C)C(=O)NC(C)C)c(=O)c2c(C)c(-n3nccn3)sc21)OCCC(=O)NO [Compound I-218] | 0.25 to 1 µg/mL (≈ 0.396 to 1.58 µM) | 10 µg/mL (≈ 15.8 µM) | 10 to 40 nM | 1 to 5 nM | 10 µg/mL (≈ 15.8 µM) | > 50 µg/mL | 2 µg/mL (≈ 3.17 µM) | 0.25 to 1 µg/mL (≈ 0.396 to 1.58 µM) | 2 µg/mL (≈ 3.17 µM) | 0.25 to 1 µg/mL (≈ 0.396 to 1.58 µM) | > 50 µg/mL | 2 µg/mL (≈ 3.17 µM) | 2 µg/mL (≈ 3.17 µM) | 
Cc1c(-n2nccn2)sc2c1c(=O)n(C(C)(C)C(=O)NC1CCC1)c(=O)n2C[C@H](OC(C)C)c1cc(F)ccc1OCC#N [Compound I-221] | 0.25 to 1 µg/mL (≈ 0.401 to 1.6 µM) | 2 µg/mL (≈ 3.21 µM) | 5 to 10 nM | 0.3 to 1 nM | 2 µg/mL (≈ 3.21 µM) | > 50 µg/mL | 0.4 µg/mL (≈ 0.641 µM) | 1.01 to 2 µg/mL (≈ 1.62 to 3.21 µM) | 0.4 µg/mL (≈ 0.641 µM) | 0.25 to 1 µg/mL (≈ 0.401 to 1.6 µM) | > 50 µg/mL | 0.4 µg/mL (≈ 0.641 µM) | 0.08 µg/mL (≈ 0.128 µM) | 
Cc1c(-n2nccn2)sc2c1c(=O)n(C(C)(C)C(=O)NC(C)C)c(=O)n2C[C@H](O[C@H]1CC[C@@H](O)CC1)c1cc(F)ccc1OCC#N [Compound I-222] | 0.25 to 1 µg/mL (≈ 0.374 to 1.5 µM) | 2 µg/mL (≈ 3 µM) | 5 to 10 nM | 0.3 to 1 nM | 0.4 µg/mL (≈ 0.599 µM) | > 50 µg/mL | 2 µg/mL (≈ 3 µM) | 0.25 to 1 µg/mL (≈ 0.374 to 1.5 µM) | 0.4 µg/mL (≈ 0.599 µM) | 0.25 to 1 µg/mL (≈ 0.374 to 1.5 µM) | > 50 µg/mL | 2 µg/mL (≈ 3 µM) | 0.08 µg/mL (≈ 0.12 µM) | 
COc1ccc(C#N)cc1[C@H](Cn1c(=O)n(C(C)(C)C(=O)NC(C)C)c(=O)c2c(C)c(-n3nccn3)sc21)OCC(C)(C)C#N [Compound I-223] |  |  | 10 to 40 nM | 1 to 5 nM |  |  |  |  |  |  |  |  |  | MIC (C. krusei; [15]): 0.25 to 1 µg/mL (≈ 0.395 to 1.58 µM); IC90 [1, 16]: > 50 µg/mL; IC90 (Diplodia maydis (Dm); [17]): > 50 µg/mL; IC90 (Septoria tritici (St); [18]): > 50 µg/mL; IC90 [2, 19]: 10 µg/mL (≈ 15.8 µM); MIC (C. albicans; [20]): 0.25 to 1 µg/mL (≈ 0.395 to 1.58 µM); IC90 (Rhizoctonia solani (Rs); [21]): 2 µg/mL (≈ 3.16 µM); MIC (C. parapsilosis; [22]): 1.01 to 2 µg/mL (≈ 1.6 to 3.16 µM); IC90 [3, 23]: > 50 µg/mL; IC90 (Botrtyis cinerea (Bc); [24]): 10 µg/mL (≈ 15.8 µM); IC90 [4, 25]: 0.4 µg/mL (≈ 0.632 µM)
COc1ccc(Br)cc1[C@H](Cn1c(=O)n(C(C)(C)C(=O)NC(C)C)c(=O)c2c(C)c(-n3nccn3)sc21)OCC(C)(C)C#N [Compound I-224] |  |  | 5 to 10 nM | 1 to 5 nM |  |  |  |  |  |  |  |  |  | MIC (C. krusei; [15]): 0.25 to 1 µg/mL (≈ 0.364 to 1.46 µM); IC90 [1, 16]: 2 µg/mL (≈ 2.91 µM); IC90 (Diplodia maydis (Dm); [17]): 2 µg/mL (≈ 2.91 µM); IC90 (Septoria tritici (St); [18]): > 50 µg/mL; IC90 [2, 19]: 0.4 µg/mL (≈ 0.583 µM); MIC (C. albicans; [20]): 0.25 to 1 µg/mL (≈ 0.364 to 1.46 µM); IC90 (Rhizoctonia solani (Rs); [21]): > 50 µg/mL; MIC (C. parapsilosis; [22]): 1.01 to 2 µg/mL (≈ 1.47 to 2.91 µM); IC90 [3, 23]: > 50 µg/mL; IC90 (Botrtyis cinerea (Bc); [24]): 0.4 µg/mL (≈ 0.583 µM); IC90 [4, 25]: 0.08 µg/mL (≈ 0.117 µM)
